# According to the supplement of paper PMC3974653:
# Counter-ions that a name gives are not always drawn.
# Tested on: MTT (mouse pheochromocytoma)
# Assay: IC50 of cell viability (ATP content)
# Settings: (24 or 48 h)
# Method in brief: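 Library compounds were tested at 8 final concentrations (0.5 nM to 46 µM) on MTT mouse pheochromocytoma cells for 24 or 48 hrs, with readout by CellTiter-Glo ATP luminescence. Signals were normalised with positive-control wells at 100% and DMSO wells at 0%. IC50 values were obtained by a four-parameter logistic fit.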
row,SMILES,IC50 of cell viability [µM]
1,ClC=C(Cl)Cl [Trichloroethylene],> 46
2,O=C(O)COc1nc(Cl)c(Cl)cc1Cl [Triclopyr],> 46
3,Oc1cc(Cl)ccc1Oc1ccc(Cl)cc1Cl [Triclosan],> 46
4,NCCNCCNCCN [Triethylenetetramine],> 46
5,Cl.O=C(CCCN1CCC(O)(c2cccc(C(F)(F)F)c2)CC1)c1ccc(F)cc1 [Trifluperidol hydrochloride],> 46
6,O=c1[nH]c(=O)n(C2C[C@H](O)[C@@H](CO)O2)cc1C(F)(F)F (some centres undefined) [Trifluridine],> 46
7,CC(=O)Oc1cc(C(F)(F)F)ccc1C(=O)O [Triflusal],> 46
8,"NC(Cc1ccc(Oc2cc(I)c(O)c(I)c2)c(I)c1)C(=O)O (centres undefined) [Triiodothyronine, reverse]",> 46
9,C[C@@H](CN(C)C)CN1c2ccccc2Sc2ccccc21.C[C@@H](CN(C)C)CN1c2ccccc2Sc2ccccc21.O=C(O)[C@@H](O)[C@@H](O)C(=O)O [Trimeprazine tartrate],> 46
10,COc1ccc(CN2CCNCC2)c(OC)c1OC [Trimetazidine dihydrochloride],> 46
11,CN1C(=O)OC(C)(C)C1=O [Trimethadione],> 46
12,COc1cc(C(=O)NCc2ccc(OCCN(C)C)cc2)cc(OC)c1OC [Trimethobenzamide hydrochloride],> 46
13,COc1cc(Cc2cnc(N)nc2N)cc(OC)c1OC [Trimethoprim],> 46
14,COc1cc(C[C@H]2NCCc3cc(O)c(O)cc32)cc(OC)c1OC [Trimethoquinol],> 46
15,COc1cc(C(=O)N2CCOCC2)cc(OC)c1OC [Trimetozine],> 46
16,C[C@@H](CN(C)C)CN1c2ccccc2CCc2ccccc21 [Trimipramine maleate salt],> 46
17,CC1=CC2=C(O1)C(=C3OC(=O)\C=C(C)/C3=C2)C [Trioxsalen],> 46
18,CCCCCCCCCCCCCCCC(=O)OCC(COC(=O)CCCCCCCCCCCCCCC)OC(=O)CCCCCCCCCCCCCCC [Tripalmitin],> 46
19,CC1(C)CC/C(=C\c2ccc(Cl)cc2)C1(O)Cn1cncn1 (centres undefined) [Triticonazole],> 46
20,COc1cc(C(=S)N2CCOCC2)cc(OC)c1OC [Tritiozina],> 46
21,CC(C)(C)CC(C)(C)c1ccc(OCCO)cc1 [Triton X-100],> 46
22,Cc1c(C)c2c(c(C)c1O)CCC(C)(COc1ccc(CC3SC(=O)NC3=O)cc1)O2 (centres undefined) [Troglitazone],> 46
23,OCCN(CCO)CCO [Trolamine],> 46
24,CO[C@@H]1C[C@H](O[C@H]2[C@H](C)[C@H](O[C@@H]3O[C@@H](C)C[C@@H](N(C)C)[C@H]3OC(C)=O)[C@H](C)C[C@]3(CO3)C(=O)[C@H](C)[C@H](OC(C)=O)[C@H](C)[C@H](C)OC(=O)[C@@H]2C)O[C@H](C)[C@H]1OC(C)=O [Troleandomycin],> 46
25,N#CC(C#N)=Cc1ccc(O)c(O)c1 [Tyrphostin 23],> 46
26,N#CC(C#N)=Cc1cc(O)c(O)c(O)c1 [Tyrphostin 25],> 46
27,"BrC1=C2N=CC=NC2=CC=C1N\C3=N\CCN3 [UK 14,304]",> 46
28,Oc1ncc(N(CCCl)CCCl)c(O)n1 [URACIL MUSTARD],> 46
29,Oc1ccnc(O)n1 [URACIL],> 46
